For assay [1], the target named is Bromodomain-containing protein 4 (Homo sapiens, UniProt O60885). Nature of the assay: Binding affinity to recombinant human BRD4 BD1 and BD2 expressed in Escherichia coli BL21 incubated for 2 hrs under shaking condition by HTRF assay.
A further assay relates to MV4-11. The experiment in a line: Antitumor activity at human MV4-11 cells xenografted in BALB/c mouse assessed as tumor growth inhibition at 25 to 100 mg/kg, ip administered for 3 to 4 weeks. As to conditions: dose 25-100 mg/kg, time 3-4 weeks. The format is functional, organism-based. (Xenograft models place foreign cells or tissue in a host animal.)
The target in assay [2] is Heat shock protein HSP 90-alpha/Bromodomain-containing protein 4 (Homo sapiens) (UniProt P07900+O60885). The experiment in a line: Protac activity at HSP90/BRD4 in human MV4-11 cells assessed as degradation of BRD4 at 40 to 1000 nM measured after 24 hrs by flow cytometry relative to control. As to conditions: dose 40-1000 nM. The format is cell-based. (In general: In flow cytometry, cells or beads pass a laser one at a time.)

SMILES strings stand for the structures. Activity calls are given as the source filed them. The calls are words filed in the database; no cut-off is given here.

Turning to `Cc1sc2c(c1C)C(c1ccc(Cl)cc1)=N[C@@H](CC(=O)N1CCC(CCN3CCC(Cc4ccc(-n5c(O)nnc5-c5cc(C(C)C)c(O)cc5O)cc4)CC3)CC1)c1nnc(C)n1-2`, the IC50 in assay [1] was less than 100 nM. With `Cc1sc2c(c1C)C(c1ccc(Cl)cc1)=N[C@@H](CC(=O)N1CCC(CN3CCN(Cc4ccc(-n5c(O)nnc5-c5ccc(O)cc5O)cc4)CC3)CC1)c1nnc(C)n1-2`, in assay [1], the IC50 is less than 100 nM. Still for that read-out and setting: to `Cc1sc2c(c1C)C(c1ccc(Cl)cc1)=N[C@@H](CC(=O)N1CCC(CN3CCN(Cc4ccc(-n5c(O)nnc5-c5cc(C(C)C)c(O)cc5O)cc4)CC3)CC1)c1nnc(C)n1-2` [listing 1 of 3 here] belongs 100 nM. On to `CCc1cc(-c2nnc(C(=O)NCC(F)(F)F)n2-c2ccc(CN3CCN(CC4CCN(C(=O)C[C@@H]5N=C(c6ccc(Cl)cc6)c6c(sc(C)c6C)-n6c(C)nnc65)CC4)CC3)cc2)c(O)cc1O`, for which, in the assay with MV4-11, the TGI entry is “Active”. The IC50 in assay [1] amounted to 100 nM.

Turning to `Cc1sc2c(c1C)C(c1ccc(Cl)cc1)=N[C@@H](CC(=O)NCC(=O)NCC1CCN(C(=O)C3CCN(Cc4ccc(-n5c(O)nnc5-c5cc(C(C)C)c(O)cc5O)cc4)CC3)CC1)c1nnc(C)n1-2`, the Activity in assay [2] was greater than 50%. The IC50 in assay [1] is less than 100 nM. For `Cc1sc2c(c1C)C(c1ccc(Cl)cc1)=N[C@@H](CC(=O)N1CCC(CN3CCN(Cc4ccc(-n5c(O)nnc5-c5cc(C(C)C)c(O)cc5O)cc4)CC3)CC1)c1nnc(C)n1-2` [listing 2 of 3 here], the IC50 in assay [1] was 100 nM.

Turning to `Cc1sc2c(c1C)C(c1ccc(Cl)cc1)=N[C@@H](CC(=O)N[C@@H](C)c1ccc(CN3CCC(Cc4ccc(-n5c(O)nnc5-c5cc(C(C)C)c(O)cc5O)cc4)CC3)cc1)c1nnc(C)n1-2`, in assay [1], the IC50 was less than 100 nM.

On to `CCc1cc(-c2nnc(O)n2-c2ccc(CN3CCC(C(=O)N4CCC(CNC(=O)C[C@@H]5N=C(c6ccc(Cl)cc6)c6c(sc(C)c6C)-n6c(C)nnc65)C4)CC3)cc2)c(O)cc1O` (stereo not given in full), for which the IC50 in assay [1] was less than 100 nM. Regarding `CCc1cc(-c2nnc(O)n2-c2ccc(CN3CCN(CC4CCN(C(=O)C[C@@H]5N=C(c6ccc(Cl)cc6)c6c(sc(C)c6C)-n6c(C)nnc65)CC4)CC3)cc2)c(O)cc1O`, the Activity in assay [2] was greater than 50%. Moreover, the IC50 in assay [1] came out at 100 nM. Take `Cc1sc2c(c1C)C(c1ccc(Cl)cc1)=N[C@@H](CC(=O)N1CCC(CN3CCN(Cc4ccc(-n5c(O)nnc5-c5cc(C(C)C)c(O)cc5O)cc4)CC3)CC1)c1nnc(C)n1-2` [listing 3 of 3 here]: in assay [2], the Activity is greater than 50%. Besides, the TGI result with MV4-11 was “Active”. In the case of `Cc1sc2c(c1C)C(c1ccc(Cl)cc1)=N[C@@H](CC(=O)NCCOCCN1CCC(Cc3ccc(-n4c(O)nnc4-c4cc(C(C)C)c(O)cc4O)cc3)CC1)c1nnc(C)n1-2`, in assay [1], the IC50 was less than 100 nM.

One may read the IC50 as the concentration at which inhibition is half-maximal.

(Values after ChEMBL document CHEMBL4680366, “Tumor-Targeted Bivalent Protein Degradation for Application in Cancer Therapy” (ACS Med Chem Lett, 2021).)
